The values below come from patent publication US4497822A, “Insecticidal N-benzoyl-N'-phenyl-N'-(R-thio)ureas” (Shell Oil Company, priority 1982, dated 1985).

The subject of assay [1] is Spodoptera littoralis larvae. As to the kind of experiment: Insecticidal activity, sprayed diet (Test 1 (a)), toxicity vs parathion. Particulars: second instar larvae; mortality 7 days after spraying; 50% mortality basis; standard parathion = 100. Format: in vivo, Egyptian cotton leafworm (Spodoptera littoralis). The protocol: (§1) The insecticidal and ovicidal activities of the compounds of the invention were assessed employing the pests, Egyptian cotton leafworm (Spodoptera littoralis, S.l.), mosquito (Aedes aegypti, A.a.) and eggs of Spodoptera littoralis, S.l.ov.
(§2) The test methods used for each species are described below. In each case the tests were conducted under normal insectary conditions (28° C.[…]; fluctuating light and humidity).
(§3) In each instance, the toxicity of the compound of the invention was compared to that of a standard pesticide (parathion), its relative toxicity then being expressed in terms of the relationship between the amount of compound of the invention and the amount of the standard pesticide required to produce the same percentage (50%) of mortality in the test insect. By assigning the standard pesticide an arbitrary rating of 100, the toxicities of the compounds of the invention were expressed in terms of the toxicity indices, which compares the toxicity of the compounds of the invention with that of the standard pesticide.
(a) Spodoptera littoralis--A solution or suspension of the test compound was made up over a range of concentrations in 10% acetone/water containing 0.025% Triton X100 (as surfactant). These solutions were sprayed using a logarithmic spraying machine onto petri dishes containing a nutritious diet on which the Spodoptera littoralis larvae had been reared. When the spray deposit had dried each dish was infested with 10 second instar larvae. Mortality assessments were made 7 days after spraying.

The subject of the next assay is Aedes aegypti larvae. Kind of assay: Insecticidal activity, larvae in treated water (Test 1 (b)), toxicity vs parathion. Particulars: early fourth instar larvae; final mortality when all larvae emerged as adults or died; 50% mortality basis; standard parathion = 100. Set-up: key: Toxicity Index: parathion = 100; 200 = twice as active, 50 = half. Format: in vivo, mosquito (Aedes aegypti). The protocol:
as §1, §2
as §3, with “pesticide. That is to say, a test compound having a Toxicity Index of 50 would be half as active, while one having a Toxicity Index of 200 would be twice as active as the standard pesticide.” for “pesticide.”
(b) Aedes aegypti--Several solutions of the test compound of varying concentration were prepared in acetone. 100 microliter quantities were added to 100 milliliters of tap water, the acetone being allowed to evaporate off. Ten early fourth instar larvae were placed in the test solution; after 48 hours the (surviving) larvae were fed with animal feed pellets, and the final percentage mortality assessed when all the larvae had either pupated and emerged as adults or died.

For assay [2], the system named is eggs of Spodoptera littoralis. Kind of assay: Ovicidal activity, sprayed eggs (Test 1 (c)), toxicity vs parathion. In kind it is in vivo, Egyptian cotton leafworm (Spodoptera littoralis). The note with it: eggs less than 24 hours old; approximately five days; 50% mortality basis; standard parathion = 100. The procedure:
as §1, §2
as §3, with “pesticide. That is to say, a test compound having a Toxicity Index of 50 would be half as active, while one having a Toxicity Index of 200 would be twice as active as the standard pesticide.” for “pesticide.”
(c) Spodoptera littoralis (ovicide)--Solutions as described in (a) above were prepared. Eggs less than 24 hours old were obtained as follows. Adult Spodoptera littoralis were held in large plastic cylinders containing blotting paper on which the moths laid their batches of eggs. Egg batches containing approximately 60-70 eggs were cut from the blotting paper with a 1 cm surround. These were placed, eggs uppermost, on filter paper in the deeper half of 5 cm disposable petri dishes and each batch of eggs was then sprayed with a different test solution or the control solution. The dishes were covered until the control eggs had hatched, approximately five days. The percentage ovicidal mortality was then calculated.

Consider `O=C(NC(=O)N(Sc1ccccc1[N+](=O)[O-])c1cc(Cl)c(Oc2ccc([N+](=O)[O-])cc2)c(Cl)c1)c1c(F)cccc1F` [Example 38], for which, in assay [1], the “Toxicity Index S.l.” value is recorded as 330. The “Toxicity Index A.a.” value in the assay on Aedes aegypti larvae is 30. Further, in assay [2], the “Toxicity Index S.l.ov.” value is given as 0.

`Cc1ccc(SN(C(=O)NC(=O)c2ccccc2Cl)c2ccc(OC(F)(F)F)cc2)cc1` [Example 23]: the “Toxicity Index S.l.” value in assay [1] was found to be 140. The “Toxicity Index A.a.” value with Aedes aegypti larvae was 145. Moreover, the “Toxicity Index S.l.ov.” value in assay [2] came to 1500.

For `Cc1ccccc1SN(C(=O)NC(=O)c1c(F)cccc1F)c1ccc(C(F)(F)F)cc1` [Example 16], the “Toxicity Index S.l.” value in assay [1] is on record as 550. In addition, the “Toxicity Index S.l.ov.” value in assay [2] came to 2700.

Consider `O=C(NC(=O)N(Sc1ccc([N+](=O)[O-])cc1[N+](=O)[O-])c1ccc(OC(F)(F)F)cc1)c1ccccc1Cl` [Example 2, 2-Chloro-N-[[[4-(trifluoromethoxy)phenyl]-N-[(2,4-dinitrophenyl)thio]amino]carbonyl]benzamide], for which the “Toxicity Index S.l.” value in assay [1] came to 150. Besides, the “Toxicity Index A.a.” value with Aedes aegypti larvae amounted to 82. Also, the “Toxicity Index S.l.ov.” value in assay [2] came out at 3300.

Take `O=C(NC(=O)N(Sc1ccc([N+](=O)[O-])cc1)c1ccc(OC(F)(F)F)cc1)c1ccccc1Cl` [Example 24]: the “Toxicity Index S.l.” value in assay [1] is recorded as 54. In addition, the “Toxicity Index A.a.” value in the assay with Aedes aegypti larvae is recorded as 31. For the same molecule, in assay [2], the “Toxicity Index S.l.ov.” value is 11.

As for `CC(C)(C)c1ccc(SN(C(=O)NC(=O)c2c(F)cccc2F)c2ccc(C(F)(F)F)cc2)cc1` [Example 26], in assay [1], the “Toxicity Index S.l.” value worked out at 580. In addition, the “Toxicity Index A.a.” value in the assay with Aedes aegypti larvae stood at 82. Further, the “Toxicity Index S.l.ov.” value in assay [2] amounted to 8.

Regarding `O=C(NC(=O)N(SC(Cl)(Cl)Cl)c1ccc(OC(F)(F)F)cc1)c1ccccc1Cl` [Example 25], in assay [1], the “Toxicity Index S.l.” value is recorded as 140. Also, the “Toxicity Index A.a.” value in the assay on Aedes aegypti larvae is 28. Also, the “Toxicity Index S.l.ov.” value in assay [2] amounted to 1300.

As to `Cc1ccc(SN(C(=O)NC(=O)c2c(F)cccc2F)c2ccc(C(F)(F)F)cc2)cc1` [Example 18], the “Toxicity Index S.l.” value in assay [1] came to 300. In addition, the “Toxicity Index A.a.” value in the assay on Aedes aegypti larvae came out at 170. In addition, the “Toxicity Index S.l.ov.” value in assay [2] amounted to 2300.

As for `CC(C)c1ccccc1SN(C(=O)NC(=O)c1ccccc1Cl)c1ccc(OC(F)(F)F)cc1` [Example 32], in assay [1], the “Toxicity Index S.l.” value was 88. For the same molecule, the “Toxicity Index A.a.” value in the assay on Aedes aegypti larvae was 28. Also, the “Toxicity Index S.l.ov.” value in assay [2] amounted to 2000.

Regarding `Cc1ccccc1SN(C(=O)NC(=O)c1ccccc1Cl)c1ccc(Oc2ccc(C(F)(F)F)cc2Cl)cc1` [Example 31], the “Toxicity Index S.l.” value in assay [1] came out at 960. Besides, the “Toxicity Index A.a.” value in the assay on Aedes aegypti larvae was found to be 240. Also, the “Toxicity Index S.l.ov.” value in assay [2] stood at 0.

For the molecule `O=C(NC(=O)N(Sc1ccc([N+](=O)[O-])cc1[N+](=O)[O-])c1ccc(C(F)(F)F)cc1)c1c(F)cccc1F` [Example 22], the “Toxicity Index S.l.” value in assay [1] stood at 220. For the same molecule, in the assay on Aedes aegypti larvae, the “Toxicity Index A.a.” value was 51. Besides, the “Toxicity Index S.l.ov.” value in assay [2] is listed as 2300.

For the molecule `Cc1ccccc1SN(C(=O)NC(=O)c1ccccc1Cl)c1ccc(OC(F)(F)F)cc1` [Example 4, 2-Chloro-N-[[[4-(trifluoromethoxy)phenyl]-N-[(2-methylphenyl)thio]amino]carbonyl]benzamide], the “Toxicity Index S.l.” value in assay [1] is recorded as 110. The “Toxicity Index A.a.” value with Aedes aegypti larvae stood at 77. Moreover, the “Toxicity Index S.l.ov.” value in assay [2] is given as 2200.

On to `CC(C)(C)c1ccc(SN(C(=O)NC(=O)c2c(F)cccc2F)c2ccc(Cl)cc2)cc1` [Example 36], for which the “Toxicity Index S.l.” value in assay [1] stood at 42. Besides, the “Toxicity Index A.a.” value in the assay with Aedes aegypti larvae was determined as 22. Moreover, the “Toxicity Index S.l.ov.” value in assay [2] is 0.

As to `O=C(NC(=O)N(Sc1ccccc1[N+](=O)[O-])c1ccc(Cl)cc1)c1c(F)cccc1F` [Example 5, N-[[[4-Chlorophenyl]-N-[(2-nitrophenyl)thio]amino]carbonyl]-2,6-difluorobenzamide], in assay [1], the “Toxicity Index S.l.” value came out at 90. Moreover, in the assay on Aedes aegypti larvae, the “Toxicity Index A.a.” value was found to be 220. Besides, the “Toxicity Index S.l.ov.” value in assay [2] is 0-4.

As to `O=C(NC(=O)N(Sc1ccccc1[N+](=O)[O-])c1ccc(C(F)(F)F)cc1)c1c(F)cccc1F` [Example 20], in assay [1], the “Toxicity Index S.l.” value amounted to 160. For the same molecule, the “Toxicity Index A.a.” value in the assay with Aedes aegypti larvae turned out to be 180. Besides, in assay [2], the “Toxicity Index S.l.ov.” value was 1800.

`O=C(NC(=O)N(SC(Cl)(Cl)Cl)c1ccc(Oc2ccc(C(F)(F)F)cc2Cl)cc1)c1ccccc1Cl` [Example 7, 2-Chloro-N-[[[4-[2-chloro-4-(trifluoromethyl)phenoxy]phenyl]-N-[(trichloromethyl)thio]amino]carbonyl]benzamide]: in assay [1], the “Toxicity Index S.l.” value came to 1800. For the same molecule, in the assay on Aedes aegypti larvae, the “Toxicity Index A.a.” value was 55. Also, in assay [2], the “Toxicity Index S.l.ov.” value was 0.

For `Cc1ccc(SN(C(=O)NC(=O)c2ccccc2Cl)c2ccc(Oc3ccc(C(F)(F)F)cc3Cl)cc2)cc1` [Example 34], the “Toxicity Index S.l.” value in assay [1] is 1200. For the same molecule, the “Toxicity Index A.a.” value in the assay with Aedes aegypti larvae came to 130. In addition, the “Toxicity Index S.l.ov.” value in assay [2] turned out to be 0.

For `O=C(NC(=O)N(Sc1ccc(Cl)cc1)c1ccc(Cl)cc1)c1c(F)cccc1F` [Example 12], the “Toxicity Index S.l.” value in assay [1] amounted to 17. In addition, the “Toxicity Index A.a.” value in the assay on Aedes aegypti larvae is 14.

For `O=C(NC(=O)N(Sc1ccc(Br)cc1)c1ccc(Cl)cc1)c1c(F)cccc1F` [Example 37], the “Toxicity Index S.l.” value in assay [1] turned out to be 51. For the same molecule, the “Toxicity Index A.a.” value in the assay with Aedes aegypti larvae is 26. In addition, the “Toxicity Index S.l.ov.” value in assay [2] is on record as 850.

Regarding `O=C(NC(=O)N(Sc1ccccc1[N+](=O)[O-])c1ccc(Oc2ccc(C(F)(F)F)cc2Cl)cc1)c1ccccc1Cl` [Example 35], in assay [1], the “Toxicity Index S.l.” value came to 2500. Besides, the “Toxicity Index A.a.” value with Aedes aegypti larvae is on record as 82. Further, in assay [2], the “Toxicity Index S.l.ov.” value turned out to be 0.

For `O=C(NC(=O)N(Sc1ccc(Br)cc1)c1ccc(C(F)(F)F)cc1)c1c(F)cccc1F` [Example 19], in assay [1], the “Toxicity Index S.l.” value is reported as 240. Also, in the assay with Aedes aegypti larvae, the “Toxicity Index A.a.” value worked out at 10. In addition, in assay [2], the “Toxicity Index S.l.ov.” value stood at 1500.

`O=C(NC(=O)N(Sc1ccc([N+](=O)[O-])cc1)c1ccc(Cl)cc1)c1c(F)cccc1F` [Example 28]: the “Toxicity Index S.l.” value in assay [1] is listed as 54. In addition, the “Toxicity Index A.a.” value with Aedes aegypti larvae came to 6. Further, in assay [2], the “Toxicity Index S.l.ov.” value worked out at 720.

As for `O=C(NC(=O)N(Sc1ccc([N+](=O)[O-])cc1)c1ccc(C(F)(F)F)cc1)c1c(F)cccc1F` [Example 21], the “Toxicity Index S.l.” value in assay [1] was found to be 96. The “Toxicity Index A.a.” value with Aedes aegypti larvae was 13.

Turning to `Cc1ccccc1SN(C(=O)NC(=O)c1c(F)cccc1F)c1ccc(Cl)cc1` [Example 9], the “Toxicity Index S.l.” value in assay [1] is 43. The “Toxicity Index A.a.” value with Aedes aegypti larvae is reported as 31. The “Toxicity Index S.l.ov.” value in assay [2] came out at 1400.

For the molecule `O=C(NC(=O)N(Sc1ccc([N+](=O)[O-])cc1[N+](=O)[O-])c1ccc(Cl)cc1)c1c(F)cccc1F` [Example 13], the “Toxicity Index S.l.” value in assay [1] was 35. For the same molecule, the “Toxicity Index A.a.” value in the assay with Aedes aegypti larvae was found to be 100. The “Toxicity Index S.l.ov.” value in assay [2] is reported as 1800.

For `O=C(NC(=O)N(Sc1ccccc1)c1ccc(C(F)(F)F)cc1)c1c(F)cccc1F` [Example 15], the “Toxicity Index S.l.” value in assay [1] was 170. The “Toxicity Index A.a.” value with Aedes aegypti larvae is given as 50. Moreover, in assay [2], the “Toxicity Index S.l.ov.” value was determined as 1800.

Take `O=C(NC(=O)N(Sc1ccccc1)c1ccc(Cl)cc1)c1c(F)cccc1F` [Example 8]: the “Toxicity Index S.l.” value in assay [1] is reported as 16. In addition, in the assay with Aedes aegypti larvae, the “Toxicity Index A.a.” value came to 22. Further, the “Toxicity Index S.l.ov.” value in assay [2] is listed as 480.
